From patent US10576064B2, “Spiro[3H-indole-3,2′-pyrrolidin]-2(1H)-one compounds and derivatives as MDM2-P53 inhibitors” (Boehringer Ingelheim International GmbH, priority 2014, dated 2020) come the findings set out here.

pIC50: −log10 of the molar value.

This assay addresses p53-MDM2 interaction (GST-MDM2 protein aa 23-117 / biotinylated p53 wt peptide) (Homo sapiens (Human), UniProt Q00987). Briefly: MDM2-p53 Inhibition AlphaScreen. Format: biochemical. Particulars: 20 nM GST-MDM2 (aa 23-117), 20 nM biotinylated p53 wt peptide. The source says: MDM2-p53 Inhibition AlphaScreen
`CNS(=O)(=O)c1ccc(N2CC[C@H]3[C@@H](C2=O)[C@H](c2cccc(Cl)c2F)[C@]2(C(=O)Nc4cc(Cl)ccc42)N3CC2CC2)cc1` [Compound I-80] had a pIC50 of 7.03.

`CCOc1cccc(CN2[C@H]3CNC(=O)[C@H]3[C@H](c3cccc(Cl)c3F)[C@]23C(=O)Nc2cc(Cl)ccc23)c1` [Compound I-43] showed a negative logarithm of the IC50 (pIC50) of 8.10.

Molecule `CCOc1cccc(CN2[C@H]3CCNC(=O)[C@H]3[C@H](c3cccc(Cl)c3)[C@]23C(=O)Nc2cc(Cl)ccc23)c1` [Compound I-7] showed a pIC50 of 7.52.

Consider `COc1cc(C(=O)O)ccc1N1CC[C@H]2[C@@H](C1=O)[C@H](c1cccc(Cl)c1)[C@]1(C(=O)Nc3cc(Cl)ccc31)N2CC1CC1` [Compound I-181], for which the pIC50 is 7.04.

`CCOc1cccc(CN2[C@H]3CN(c4ccc(C(=O)NO)cc4)C(=O)[C@H]3[C@H](c3cccc(Cl)c3F)[C@]23C(=O)Nc2cc(Cl)ccc23)c1` [Compound I-283] had a negative logarithm of the IC50 (pIC50) of 8.40.

In turn, `CN(C)C(=O)c1ccc(N2CC[C@H]3[C@@H](C2=O)[C@H](c2cccc(Cl)c2F)[C@]2(C(=O)Nc4cc(Cl)ccc42)N3CC2CC2)cc1` [Compound I-272] had a negative-log IC50 (pIC50) of 7.60. This pIC50 lies 0.80 log units lower than the previous one.

The molecule `COC(=O)c1ccc(N2CC[C@H]3[C@@H](C2=O)[C@H](c2cccc(Cl)c2F)[C@]2(C(=O)Nc4cc(Cl)ccc42)N3CC2CC2C)c(F)c1` (some centres unmarked) [Compound I-84] gave a pIC50 of 5.93. Compared with the last molecule, the pIC50 is 1.67 log units lower.

`CC1CC1CN1[C@H]2CCN(c3ccc(C(=O)O)cc3)C(=O)[C@H]2[C@H](c2cccc(Cl)c2F)[C@]12C(=O)Nc1cc(Cl)ccc12` (some centres unmarked) [Compound I-196] showed a pIC50 of 7.70. This pIC50 is 1.77 log units higher than that of the molecule before.

`CCOc1cccc(CN2[C@H]3CCNC(=O)[C@H]3[C@H](c3cccc(Cl)c3F)[C@]23C(=O)Nc2cc(Cl)ccc23)c1` [Compound I-5] gave a negative logarithm of the IC50 (pIC50) of 7.77.

`O=C(NO)c1ccc(N2CC[C@H]3[C@@H](C2=O)[C@H](c2cccc(Cl)c2F)[C@]2(C(=O)Nc4cc(Cl)ccc42)N3CC2CC2)cc1` [Compound I-274] showed a pIC50 of 7.70.

As for `NC(=O)c1ccc(N2CC[C@H]3[C@@H](C2=O)[C@H](c2cccc(Cl)c2F)[C@]2(C(=O)Nc4cc(Cl)ccc42)N3CC2CC2)cc1` [Compound I-268], the pIC50 was 7.59.

With `CNC(=O)c1ccc(N2CC[C@H]3[C@@H](C2=O)[C@H](c2cccc(Cl)c2F)[C@]2(C(=O)Nc4cc(Cl)ccc42)N3CC2CC2)cc1` [Compound I-270], the negative logarithm of the IC50 (pIC50) is 7.57. The pIC50 values of the last two molecules are within 0.2 log units of each other.

`CN(C)C(=O)c1ccc(N2C[C@H]3[C@@H](C2=O)[C@H](c2cccc(Cl)c2F)[C@]2(C(=O)Nc4cc(Cl)ccc42)N3CC2CC2)cc1` [Compound I-286] showed a pIC50 of 8.00.

`CCOc1cccc(CN2[C@H]3CCN(Cc4ccc(C(=O)O)cc4)C(=O)[C@H]3[C@H](c3cccc(Cl)c3F)[C@]23C(=O)Nc2cc(Cl)ccc23)c1` [Compound I-212] had a pIC50 of 7.68.

As to `O=C(O)c1ccc(N2C[C@H]3[C@@H](C2=O)[C@H](c2cccc(Cl)c2F)[C@]2(C(=O)Nc4cc(Cl)ccc42)N3CC2CC(F)(F)C2)cc1` [Compound I-230], the negative-log IC50 (pIC50) was 8.30.

Regarding `O=C1NCC[C@H]2[C@@H]1[C@H](c1cccc(Cl)c1F)[C@]1(C(=O)Nc3cc(Br)ccc31)N2CC1CC1` [Compound I-21], the pIC50 is 7.19. Against the preceding molecule, the pIC50 is 1.11 log units lower.

In the case of `CC(C)(C)CN1[C@H]2CN(c3ccc(C(=O)O)cc3)C(=O)[C@H]2[C@H](c2cccc(Cl)c2F)[C@]12C(=O)Nc1cc(Cl)ccc12` [Compound I-229], the pIC50 was 8.30.

As for `O=C(O)c1ccc(N2C[C@H]3[C@@H](C2=O)[C@H](c2cccc(Cl)c2F)[C@]2(C(=O)Nc4cc(Cl)ccc42)N3CC2CC2)cc1` [Compound I-216], the negative logarithm of the IC50 (pIC50) is 8.22.

`O=C(O)c1ccc(N2C[C@H]3[C@@H](C2=O)[C@H](c2cccc(Cl)c2F)[C@]2(C(=O)Nc4cc(Cl)ccc42)N3CC2CC2)cc1` [Compound I-217] gave a pIC50 of 8.30.

`Nc1ccc(N2CC[C@H]3[C@@H](C2=O)[C@H](c2cccc(Cl)c2F)[C@]2(C(=O)Nc4cc(Cl)ccc42)N3CC2CC2)cc1` [Compound I-292] had a pIC50 of 6.79. This pIC50 lies 1.51 log units lower than the previous one.

The molecule `O=C1[C@@H]2[C@H](CCN1c1ccc(-c3nnn[nH]3)cc1)N(CC1CC1)[C@@]1(C(=O)Nc3cc(Cl)ccc31)[C@H]2c1cccc(Cl)c1F` [Compound I-72] showed a pIC50 of 7.77.

Regarding `O=C(O)c1csc(N2C[C@H]3[C@@H](C2=O)[C@H](c2cccc(Cl)c2F)[C@]2(C(=O)Nc4cc(Cl)ccc42)N3CC2CC2)n1` [Compound I-233], the negative logarithm of the IC50 (pIC50) was 8.05.

In the case of `O=C(O)c1ccc(CN2CC[C@H]3[C@@H](C2=O)[C@H](c2cccc(Cl)c2F)[C@]2(C(=O)Nc4cc(Cl)ccc42)N3CC2CC2)cc1` [Compound I-208], the negative-log IC50 (pIC50) is 6.68. This pIC50 is 1.37 log units lower than that of the molecule before.

In the case of `NC(=O)c1ccc(N2C[C@H]3[C@@H](C2=O)[C@H](c2ccnc(Cl)c2F)[C@]2(C(=O)Nc4cc(Cl)ccc42)N3CC2CC2)cc1` [Compound I-288], the negative-log IC50 (pIC50) was 8.10. Against the preceding molecule, the pIC50 is 1.42 log units higher.

Consider `COC(=O)c1ccc(N2CC[C@H]3[C@@H](C2=O)[C@H](c2cccc(Cl)c2F)[C@]2(C(=O)Nc4cc(Cl)ccc42)N3CC2CC2C)c(OC)c1` (some centres unmarked) [Compound I-82], for which the pIC50 is 5.99.

`CS(=O)(=O)Nc1ccc(N2CC[C@H]3[C@@H](C2=O)[C@H](c2cccc(Cl)c2F)[C@]2(C(=O)Nc4cc(Cl)ccc42)N3CC2CC2)cc1` [Compound I-300] showed a pIC50 of 7.01.

For the molecule `O=CNc1ccc(N2CC[C@H]3[C@@H](C2=O)[C@H](c2cccc(Cl)c2F)[C@]2(C(=O)Nc4cc(Cl)ccc42)N3CC2CC2)cc1` [Compound I-298], the pIC50 was 7.07. The pIC50 values of the last two molecules are within 0.2 log units of each other.

`O=C(O)c1ccc(N2CC[C@H]3[C@@H](C2=O)[C@H](c2cccc(Cl)c2F)[C@]2(C(=O)Nc4cc(Cl)ccc42)N3CC2CC2)cc1` [Compound I-171] showed a negative-log IC50 (pIC50) of 8.40.

Molecule `CS(=O)(=O)c1ccc(N2CC[C@H]3[C@@H](C2=O)[C@H](c2cccc(Cl)c2F)[C@]2(C(=O)Nc4cc(Cl)ccc42)N3CC2CC2)cc1` [Compound I-76] gave a pIC50 of 7.38.

Regarding `O=C(O)c1ccc(N2C[C@@H]3[C@H](C2=O)[C@@H](c2cccc(Cl)c2F)[C@@]2(C(=O)Nc4cc(Cl)ccc42)N3CC2CCCCC2)cc1` [Compound I-235], the negative-log IC50 (pIC50) was 6.01.

`O=C(O)c1ccc(N2C[C@H]3[C@@H](C2=O)[C@H](c2cccc(Br)c2F)[C@]2(C(=O)Nc4cc(Cl)ccc42)N3CC2CC2)cc1F` [Compound I-254] had a pIC50 of 8.05. This pIC50 lies 2.04 log units higher than the previous one.

`O=C1NC[C@H]2[C@@H]1[C@H](c1cccc(Cl)c1F)[C@]1(C(=O)Nc3cc(Cl)ccc31)N2CC1CC1` [Compound I-40]: the negative-log IC50 (pIC50) was 7.48.

`O=C(O)c1ccc(N2CC[C@H]3[C@@H](C2=O)[C@H](c2cccc(Cl)c2F)[C@]2(C(=O)Nc4cc(Cl)c(F)cc42)N3CC2CC2)cc1` [Compound I-173]: the pIC50 was 7.54.

`CC(=O)Nc1ccc(N2CC[C@H]3[C@@H](C2=O)[C@H](c2cccc(Cl)c2F)[C@]2(C(=O)Nc4cc(Cl)ccc42)N3CC2CC2)cc1` [Compound I-296]: the pIC50 is 7.24. Against the preceding molecule, the pIC50 is 0.30 log units lower.

`CCOc1cccc(CN2[C@@H]3CN(c4ccc(C(=O)O)cc4)C(=O)[C@@H]3[C@@H](c3cccc(Cl)c3F)[C@@]23C(=O)Nc2cc(Cl)ccc23)c1` [Compound I-239]: the pIC50 was 5.94.

Molecule `CCOc1cccc(CN2[C@H]3CN(Cc4ccc(C(=O)O)cc4)C(=O)[C@H]3[C@H](c3cccc(Cl)c3F)[C@]23C(=O)Nc2cc(Cl)ccc23)c1` [Compound I-246] had a pIC50 of 7.77.

`CC1CC1CN1[C@H]2CCN(c3ccc(S(C)(=O)=O)cc3)C(=O)[C@H]2[C@H](c2cccc(Cl)c2F)[C@]12C(=O)Nc1cc(Cl)ccc12` (some centres unmarked) [Compound I-78] showed a pIC50 of 6.92.

`O=C1NCC[C@H]2[C@@H]1[C@H](c1cccc(Cl)c1F)[C@]1(C(=O)Nc3cc(Cl)ccc31)N2CC1CC1` [Compound I-1] showed a pIC50 of 7.07. This pIC50 and that of the molecule before are within 0.2 log units of each other.

`CCOC(=O)CNc1ccc(N2CC[C@H]3[C@@H](C2=O)[C@H](c2cccc(Cl)c2F)[C@]2(C(=O)Nc4cc(Cl)ccc42)N3CC2CC2)cc1` [Compound I-304]: the pIC50 was 6.72.

The molecule `O=C(O)c1ccc(N2CC[C@H]3[C@@H](C2=O)[C@H](c2cccc(Cl)c2F)[C@]2(C(=O)Nc4cc(Br)ccc42)N3CC2CC2)cc1` [Compound I-204] showed a negative-log IC50 (pIC50) of 7.82.

For the molecule `NC(=O)c1ccc(N2C[C@H]3[C@@H](C2=O)[C@H](c2cccc(Cl)c2F)[C@]2(C(=O)Nc4cc(Cl)ccc42)N3CC2CC2)cc1C(F)(F)F` [Compound I-281], the negative logarithm of the IC50 (pIC50) was 7.17.

As to `O=C(CO)c1ccc(N2C[C@H]3[C@@H](C2=O)[C@H](c2cccc(Cl)c2F)[C@]2(C(=O)Nc4cc(Cl)ccc42)N3CC2CC2)cc1` [Compound I-262], the pIC50 was 7.68.

Molecule `CCOc1cccc(CN2[C@H]3CCN(c4ccc(C(=O)O)cc4)C(=O)[C@H]3[C@H](c3cccc(Cl)c3F)[C@]23C(=O)Nc2cc(Cl)ccc23)c1` [Compound I-186] showed a pIC50 of 8.70.

`O=C1NCC[C@H]2[C@@H]1[C@H](c1cccc(Cl)c1F)[C@]1(C(=O)Nc3cc(Cl)ccc31)N2CC1CC1` [Compound I-2]: the pIC50 is 6.95.

Consider `NC(=O)c1ccc(N2C[C@H]3[C@@H](C2=O)[C@H](c2cccc(Cl)c2F)[C@]2(C(=O)Nc4cc(Cl)ccc42)N3CC2CC2)cc1` [Compound I-280], for which the pIC50 is 8.15.

The molecule `CC(C)(C)CN1[C@H]2CCNC(=O)[C@H]2[C@H](c2cccc(Cl)c2F)[C@]12C(=O)Nc1cc(Cl)ccc12` [Compound I-15] gave a negative-log IC50 (pIC50) of 6.82. Against the preceding molecule, the pIC50 is 1.33 log units lower.

The molecule `CON(C)C(=O)c1ccc(N2CC[C@H]3[C@@H](C2=O)[C@H](c2cccc(Cl)c2F)[C@]2(C(=O)Nc4cc(Cl)ccc42)N3CC2CC2)cc1` [Compound I-278] showed a negative-log IC50 (pIC50) of 7.48.

The molecule `O=C(O)c1ccc(N2C[C@H]3[C@@H](C2=O)[C@H](c2cccc(Cl)c2F)[C@]2(C(=O)Nc4cc(Cl)ccc42)N3CC2CC2)cc1C(F)(F)F` [Compound I-256] showed a negative logarithm of the IC50 (pIC50) of 7.57.

Regarding `CCOc1cccc(CN2[C@H]3CCN(c4ccc(C(=O)OC)cc4)C(=O)[C@H]3[C@H](c3cccc(Cl)c3F)[C@]23C(=O)Nc2cc(Cl)ccc23)c1` [Compound I-71], the pIC50 is 7.17.

On to `O=C(O)c1ccc(N2CC[C@H]3[C@@H](C2=O)[C@H](c2cccc(Cl)c2F)[C@]2(C(=O)Nc4cc(Cl)ccc42)N3CC2CC2)cc1` [Compound I-170], for which the pIC50 is 7.96.
